Test results published in ChEMBL document CHEMBL5352498, “Aza-Residue Modulation of Cyclic d,l-α-Peptide Nanotube Assembly with Enhanced Anti-Amyloidogenic Activity” (J Med Chem, 2023).
Calls of active or inactive are those of the source. No cut-off for these calls is given here. Where a SMILES comes first, the peptide text is derived from it. [ ]: non-standard residue; d: D form. Nle = CCCC[C@H](N)C(=O)O

Key:
[1] = molecular target: Amyloid-beta precursor protein (Homo sapiens) (UniProt P05067); test: Inhibition of amyloid beta 42 (unknown origin) aggregation assessed as decrease in fibril formation by measuring fluorescence intensity and measured for 72 hrs by ThT flourescence assay
Chain of Amyloid-beta precursor protein (Homo sapiens) (P05067 whole entry): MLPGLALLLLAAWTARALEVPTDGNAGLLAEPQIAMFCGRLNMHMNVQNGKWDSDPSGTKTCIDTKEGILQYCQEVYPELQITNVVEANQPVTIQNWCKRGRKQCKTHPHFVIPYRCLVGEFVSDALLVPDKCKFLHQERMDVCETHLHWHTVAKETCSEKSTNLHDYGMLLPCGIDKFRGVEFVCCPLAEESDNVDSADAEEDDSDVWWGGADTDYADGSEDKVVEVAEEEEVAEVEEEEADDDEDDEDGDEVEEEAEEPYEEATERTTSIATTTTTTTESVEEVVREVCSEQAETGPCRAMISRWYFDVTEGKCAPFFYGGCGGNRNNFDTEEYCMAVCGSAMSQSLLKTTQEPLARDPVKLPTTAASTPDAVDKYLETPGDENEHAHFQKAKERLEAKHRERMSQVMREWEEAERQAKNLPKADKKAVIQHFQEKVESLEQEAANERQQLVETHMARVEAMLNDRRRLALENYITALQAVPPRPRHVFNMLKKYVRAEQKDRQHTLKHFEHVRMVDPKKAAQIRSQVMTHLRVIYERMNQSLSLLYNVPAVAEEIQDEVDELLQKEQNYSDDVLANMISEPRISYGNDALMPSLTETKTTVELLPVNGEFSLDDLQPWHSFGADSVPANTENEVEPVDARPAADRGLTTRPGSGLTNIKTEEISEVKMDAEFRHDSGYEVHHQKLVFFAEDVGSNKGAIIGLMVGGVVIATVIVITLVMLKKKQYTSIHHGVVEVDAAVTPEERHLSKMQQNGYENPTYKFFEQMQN

[2] = molecular target: Amyloid-beta precursor protein (Homo sapiens) (UniProt P05067); test: Induction of amyloid beta 40 fibrils (unknown origin) disaggregation assessed as decrease in relative fluorescence intensity at 500 uM incubated for 24 hrs ThT flourescence assay relative to control; parameters: scale not given: the % may be the effect or the level left
PC-12 [3] = test: Neuroprotective activity against amyloid beta 40-induced cytotoxicity in rat PC12 cells assessed as increase in cell viability at compound:Abeta40 concentration ratio of 1:5 and incubated for 24 hrs by MTT assay relative to control; assay type: functional
[4] = molecular target: Amyloid-beta precursor protein (Homo sapiens) (UniProt P05067); test: Inhibition of amyloid beta 40 (unknown origin) aggregation assessed as reduction in fibril formation by measuring fluorescence intensity at compound:Abeta40 concentration ratio of 1:5 and measured for 72 hrs by ThT flourescence assay relative to control
[5] = molecular target: Amyloid-beta precursor protein (Homo sapiens) (UniProt P05067); test: Inhibition of amyloid beta 40 (unknown origin) aggregation assessed as reduction in fibril formation by measuring fluorescence intensity at 100 to 500 uM measured for 72 hrs by ThT flourescence assay; details: dose 100-500 µM
[6] = molecular target: Amyloid-beta precursor protein (Homo sapiens) (UniProt P05067); test: Inhibition of amyloid beta 40 (unknown origin) aggregation assessed as decrease in […] conformation of protein secondary structure at 50 uM incubated for 24 hrs by Circular dichroism spectroscopy analysis
[7] = molecular target: Amyloid-beta precursor protein (Homo sapiens) (UniProt P05067); test: Inhibition of amyloid beta 40 (unknown origin) aggregation assessed as assessed as decrease in oligomer formation by measuring decrease in oligomer-specific A11 antibody spots at 150 uM and measured for 48 hrs by Dot-Blot assay
[8] = molecular target: Amyloid-beta precursor protein (Homo sapiens) (UniProt P05067); test: Inhibition of amyloid beta 40 (unknown origin) aggregation assessed as assessed as decrease in fibril formation by measuring decrease in fibril-specific OC antibody spots at 150 uM and measured for 48 hrs by Dot-Blot assay
PC-12 [9] = test: Cytotoxicity against rat PC12 cells assessed as reduction in cell viability at 100 uM incubated for 24 hrs by MTT assay; assay type: toxicity, cell-based; details: pc-12, 24 h
Caenorhabditis elegans [10] = test: Neuroprotective activity against wild type Caenorhabditis elegans CL2122 assessed as motility changes by measuring worms bending frequency at 50 uM incubated for 36 hrs at 16 degreeC and 36 hrs at 23 degreeC; assay type: functional, organism-based; details: time 72.0 hrs
Caenorhabditis elegans [11] = test: Neuroprotective activity in transgenic Caenorhabditis elegans GMC101 Alzheimer's disease model overexpressing human amyloid beta (1 to 42 residues) in body-wall muscle assessed as delay in amyloid beta 42-induced paralysis at 5 to 50 uM incubated for 48 hrs; assay type: functional, organism-based; details: dose 5-50 µM
Caenorhabditis elegans [12] = test: Neuroprotective activity in transgenic Caenorhabditis elegans GMC101 Alzheimer's disease model expressing human amyloid beta (1 to 42 residues) in body-wall muscle assessed as increase in fraction of unparalyzed worms at 5 uM incubated for 48 hrs (Rvb= 56%); assay type: functional
Caenorhabditis elegans [13] = test: Neuroprotective activity in transgenic Caenorhabditis elegans GMC101 Alzheimer's disease model overexpressing human amyloid beta (1 to 42 residues) in body-wall muscle assessed as reduction in amyloid beta fibrils incubated for 48 hrs by Western blot analysis; assay type: functional, organism-based
Caenorhabditis elegans [14] = test: Neuroprotective activity against transgenic Caenorhabditis elegans CL2355 Alzheimer's disease model expressing human amyloid beta (1 to 42 residues) in neuron assessed as neutralization of damaging effect of amyloid beta aggregation by measuring increase in chemotaxis index at 50 uM incubated for 36 hrs at 16 degreeC and 36 hrs at 23 degreeC by Chemotaxis Assay; assay type: functional, organism-based; details: time 72.0 hrs
Caenorhabditis elegans [15] = test: Neuroprotective activity in transgenic Caenorhabditis elegans GMC101 Alzheimer's disease model overexpressing human amyloid beta (1 to 42 residues) in body-wall muscle assessed as reduction in amyloid beta oligomers incubated for 48 hrs by Western blot analysis; assay type: functional, organism-based
Caenorhabditis elegans [16] = test: Neuroprotective activity against transgenic Caenorhabditis elegans CL2355 Alzheimer's disease model expressing human amyloid beta (1 to 42 residues) in neuron assessed as increase in motility at 5 to 50 uM incubated for 36 hrs at 16 degreeC and 36 hrs at 23 degreeC; assay type: functional, organism-based; details: dose 5-50 µM, time 72.0 hrs
Caenorhabditis elegans [17] = test: Neuroprotective activity against wild type Caenorhabditis elegans CL2122 assessed as delay in amyloid beta 42-induced paralysis at 50 uM incubated for 48 hrs; assay type: functional, organism-based
[18] = molecular target: Amyloid-beta precursor protein (Homo sapiens) (UniProt P05067); test: Inhibition of amyloid beta 40 (unknown origin) self aggregation assessed as change in fibril morphology at 500 uM incubated for 72 hrs by TEM analysis
PC-12 [19] = test: Neuroprotective activity against amyloid beta 40-induced cytotoxicity in rat PC12 cells assessed as increase in cell viability at compound:Abeta40 concentration ratio of 1:1 and incubated for 24 hrs by MTT assay relative to control; assay type: functional, cell-based
Caenorhabditis elegans [20] = test: Neuroprotective activity in transgenic Caenorhabditis elegans GMC101 Alzheimer's disease model overexpressing human amyloid beta (1 to 42 residues) in body-wall muscle assessed as reduction in oligomeric-specific A11 antibody spots incubated for 48 hrs by immunochemical dot-blot analysis; assay type: functional, organism-based
Caenorhabditis elegans [21] = test: Neuroprotective activity in transgenic Caenorhabditis elegans GMC101 Alzheimer's disease model overexpressing human amyloid beta (1 to 42 residues) in body-wall muscle assessed as reduction in fibril-specific […] antibody spots incubated for 48 hrs by immunochemical dot-blot analysis; assay type: functional, organism-based
Caenorhabditis elegans [22] = test: (§1) Neuroprotective activity against transgenic Caenorhabditis elegans CL2355 Alzheimer's disease model expressing human amyloid beta (1 to 42 residues) in neuron assessed as increase in motility by measuring bending frequency at 5 uM incubated for 36 hrs at 16 degreeC and 36 hrs at 23 degreeC (reference value: 74); assay type: functional; details: time 72 hrs
[23] = molecular target: Amyloid-beta precursor protein (Homo sapiens) (UniProt P05067); test: Inhibition of amyloid beta 40 (unknown origin) aggregation assessed as reduction in fibril formation by measuring fluorescence intensity at compound:Abeta40 concentration ratio of 1:1 and measured for 72 hrs by ThT flourescence assay relative to control
Caenorhabditis elegans [24] = test: Neuroprotective activity against transgenic Caenorhabditis elegans GMC101 Alzheimer's disease model expressing human amyloid beta 42 assessed as increase in fractional of unparalyzed worms at 5 uM (Rvb=51%); assay type: functional
Caenorhabditis elegans [25] = test: Neuroprotective activity against transgenic Caenorhabditis elegans CL2355 Alzheimer's disease model expressing human amyloid beta (1 to 42 residues) in neuron assessed as increase in chemotaxis index at 50 uM incubated for 36 hrs at 16 degreeC and 36 hrs at 23 degreeC by Chemotaxis Assay (0.22; assay type: functional; details: time 72 hrs
Caenorhabditis elegans [26] = test: as §1, with “72)” for “74)”; assay type: functional; details: time 72 hrs
[27] = molecular target: Amyloid-beta precursor protein (Homo sapiens) (UniProt P05067); test: Inhibition of amyloid beta 40 (unknown origin) self aggregation assessed as decrease in fibril formation at 500 uM incubated for 72 hrs by TEM analysis
[28] = molecular target: Amyloid-beta precursor protein (Homo sapiens) (UniProt P05067); test: Inhibition of amyloid beta 42 (unknown origin) aggregation assessed as reduction in fibril formation by measuring fluorescence intensity at compound:Abeta42 concentration ratio of 1:5 and measured for 72 hrs by ThT flourescence assay relative to control

| Structure (SMILES) | inhibition [1] | Activity [2] [%] | inhibition [4] | inhibition [5] | inhibition [6] | inhibition [7] | inhibition [8] | inhibition [23] | Activity (PC-12 [3]) [%] | Activity (PC-12 [9]) | Activity (PC-12 [19]) | other results |
| --- | --- | --- | --- | --- | --- | --- | --- | --- | --- | --- | --- | --- |
| CCCC[C@@H]1NC(=O)[C@@H](CC(C)C)NC(=O)[C@H](CCCCN)NC(=O)[C@@H](CO)NC(=O)N(Cc2c[nH]nn2)NC(=O)[C@@H](Cc2c[nH]c3ccccc23)NC1=O (racemic) | Active | < 50 | Active | Active | 60% | Active | Active | – | >90 | Non-Toxic | – | – |
| CCCC[C@@H]1NC(=O)[C@@H](CC(C)C)NC(=O)[C@H](CCCCN)NC(=O)[C@@H](CO)NC(=O)[C@H](Cc2c[nH]cn2)NC(=O)N(Cc2cc3ccccc3[nH]2)NC1=O | inactive | < 50 | Active | Active | inactive | inactive | inactive | – | – | Toxic | – | – |
| CCCC[C@@H]1NC(=O)[C@@H](CC(C)C)NC(=O)[C@H](CCCCN)NC(=O)[C@@H](CO)NC(=O)[C@H](Cc2c[nH]cn2)NC(=O)[C@@H](Cc2c[nH]c3ccccc23)NC1=O (cyclo(K[dL][Nle][dW]H[dS])) | – | 33 | 89% | – | – | – | – | 50% | 88 | Non-Toxic | – | Activity (Caenorhabditis elegans [24]): 86%; Activity (Caenorhabditis elegans [25]): 0.32; Activity (Caenorhabditis elegans [26]): 82 |

Continued, in another order:

| inhibition [1] | Activity [2] [%] | inhibition [4] | inhibition [5] | inhibition [6] | inhibition [7] | inhibition [8] | inhibition [23] | Structure (SMILES) | Activity (PC-12 [3]) [%] | Activity (PC-12 [9]) | Activity (PC-12 [19]) | other results |
| --- | --- | --- | --- | --- | --- | --- | --- | --- | --- | --- | --- | --- |
| Active | < 50 | Active | Active | 60% | Active | – | – | CCCC[C@@H]1NC(=O)[C@@H](CC(C)C)NC(=O)[C@H](CCCCN)NC(=O)N(CCO)NC(=O)[C@H](Cc2c[nH]cn2)NC(=O)[C@@H](Cc2c[nH]c3ccccc23)NC1=O (racemic) | >90 | Non-Toxic | Active | Activity (Caenorhabditis elegans [10]): inactive; Activity (Caenorhabditis elegans [11]): Dose-Dependent Effect; Activity (Caenorhabditis elegans [12]): 60%; Activity (Caenorhabditis elegans [13]): Active; Activity (Caenorhabditis elegans [14]): Active; Activity (Caenorhabditis elegans [15]): Active; Activity (Caenorhabditis elegans [16]): Dose-Dependent Effect; Activity (Caenorhabditis elegans [17]): inactive; inhibition [18]: Active; Activity (Caenorhabditis elegans [20]): Active; Activity (Caenorhabditis elegans [21]): Active; Activity (Caenorhabditis elegans [22]): 79 |
| – | 72 | inactive | Active | Active | inactive | inactive | inactive | CCCC[C@@H]1NC(=O)N(CC(C)C)NC(=O)[C@H](CCCCN)NC(=O)[C@@H](CO)NC(=O)[C@H](Cc2c[nH]cn2)NC(=O)[C@@H](Cc2c[nH]c3ccccc23)NC1=O (racemic) | – | Toxic | – | – |
| Active | < 50 | inactive | Active | Active | Active | – | inactive | CCCC[C@@H]1NC(=O)[C@@H](CC(C)C)NC(=O)N(CCCCN)NC(=O)[C@@H](CO)NC(=O)[C@H](Cc2c[nH]cn2)NC(=O)[C@@H](Cc2c[nH]c3ccccc23)NC1=O (racemic) | >90 | Non-Toxic | Active | inhibition [18]: Active |
| Active | < 50 | 88% | Active | inactive | Active | Active | 93% | CCCCN1NC(=O)[C@@H](CC(C)C)NC(=O)[C@H](CCCCN)NC(=O)[C@@H](CO)NC(=O)[C@H](Cc2c[nH]cn2)NC(=O)[C@@H](Cc2c[nH]c3ccccc23)NC1=O (racemic) | >90 | Non-Toxic | Active | Activity (Caenorhabditis elegans [10]): inactive; Activity (Caenorhabditis elegans [11]): Dose-Dependent Effect; Activity (Caenorhabditis elegans [12]): 76%; Activity (Caenorhabditis elegans [13]): Active; Activity (Caenorhabditis elegans [14]): Active; Activity (Caenorhabditis elegans [15]): Active; Activity (Caenorhabditis elegans [16]): Dose-Dependent Effect; inhibition [27]: Active; inhibition [28]: 87.6%; Activity (Caenorhabditis elegans [17]): inactive; Activity (Caenorhabditis elegans [20]): Active; Activity (Caenorhabditis elegans [21]): Active; Activity (Caenorhabditis elegans [22]): 79 |
